The source of these data is patent US20040071328A1, “Classifying cells based on information contained in cell images” (priority 2003, published 2004).

Molecules are shown by their SMILES.

This assay has as its system Cell Line A549 (human lung cancer epithelial cells). Kind of assay: Cell cycle characterization of Taxol-treated A549 cells by image analysis of DAPI-stained DNA. In kind it is cell-based. On the procedure: FIGS. 14A-14G depict the results of an experiment in which human lung cancer epithelial cells were treated with Taxol and the effect of Taxol on the cell cycle was characterized. The specific cells used in this study were from Cell Line A549 (human lung cancer epithelial cells) (ATCC:CCL-185). Two day staged cell cultures of the A549 cells were trypsinized for five minutes from T175 cm flasks. The cells were then suspended in ten milliliters of RPMI media with ten percent serum and counted using both a hemocytometer and Coulter Counter. The suspension was diluted further in media to ensure that there were 1600 cells per twenty microliters in suspension. The cells were then counted again. Thereafter, they were transferred to a Cell Stir and kept in suspension while being plated into barcoded 384 well plates using a MultiDrop at twenty microliters per well. The plates were transferred to a humidified carbon dioxide incubator to recover for twenty-four hours before the addition of Taxol or DMSO. Prior to imaging the cells were treated with DAPI to stain DNA. Cells from each well were then imaged.
Of relevance to this example, eight wells were treated with Taxol at varying concentrations and eight other “control” wells were treated with DMSO, which is not toxic to the cells under consideration. The concentration of Taxol varied from approximately 0.09 micromolar to 200 micromolar. […] Cells in each of the eight Taxol wells were separately imaged and the total measured intensity in each cell was recorded. As discussed above, the total intensity corresponds to the amount of DNA in each cell. In the histogram, the cell count has been normalized so that the area under each curve was equal to a value of one.
The data used to produce the histogram of FIG. 14B was taken from the same images of the eight Taxol containing wells used to produce the histogram of FIG. 14A. In this histogram, the mitotic discriminator is defined as log2(average intensity) minus log2(area).
The five phases are G1, S, G2, m (telophase), and M (prophase, metaphase, and anaphase). […]

`CC(=O)O[C@H]1C(=O)[C@@]2(C)[C@H]([C@H](OC(=O)c3ccccc3)[C@]3(O)C[C@H](OC(=O)[C@H](O)[C@@H](NC(=O)c4ccccc4)c4ccccc4)C(C)=C1C3(C)C)[C@]1(OC(C)=O)CO[C@@H]1C[C@@H]2O` [Taxol]: the “distribution of cells based upon the amount of DNA contained in each cell (log2 total intensity histogram; G1 vs G2 peaks)” value (Taxol approximately 0.09 micromolar to 200 micromolar, eight wells, DAPI stain, FIG. 14A) is “arrests cells in the G2 phase”. In addition, under “Taxol approximately 0.09 to 200 micromolar, FIG. 14B”, the “mitotic discriminator (log2(average intensity) minus log2(area)); relative incidence of mitotic vs interphase cells” value is recorded as “greatly increase the relative incidence of mitotic cells”. For the same molecule, the “number of objects divided by the average number of DMSO objects ("o" curve; objects correspond to living cells)” value (Taxol approximately 0.09 to 200 micromolar, FIG. 14C) was “decreases with increasing concentration of Taxol”.
